Tests used:
[1] = target: T1, Leucine-Rich Repeat Kinase 2 (LRRK2) WDR40 domain (Homo sapiens, UniProt Q5S007); assay: SPR (not confirmed by orthogonal assays); assay type: binding
T1 construct: WDR40 domain
T1 sequence (Q5S007 2142-2527 limits assumed): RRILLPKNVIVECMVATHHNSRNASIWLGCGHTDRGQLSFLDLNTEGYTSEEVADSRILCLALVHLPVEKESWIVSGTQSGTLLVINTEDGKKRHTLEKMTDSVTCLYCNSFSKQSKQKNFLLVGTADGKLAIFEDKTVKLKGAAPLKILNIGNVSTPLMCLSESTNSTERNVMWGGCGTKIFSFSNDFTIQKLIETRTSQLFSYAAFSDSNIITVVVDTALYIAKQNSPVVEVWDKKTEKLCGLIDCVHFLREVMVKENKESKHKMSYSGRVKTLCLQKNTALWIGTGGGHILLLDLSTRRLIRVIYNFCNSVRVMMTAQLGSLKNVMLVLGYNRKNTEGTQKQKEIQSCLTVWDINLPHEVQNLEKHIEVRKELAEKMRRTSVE

[2] = target: T1, Leucine-Rich Repeat Kinase 2 (LRRK2) WDR40 domain; assay: SPR; weak DSF stabilization (ΔTm […] °C); assay type: binding

| SMILES | Kd [1] [µM] | Kd [2] [µM] |
| --- | --- | --- |
| O=c1[nH]c2ccc(CNc3cccc(-n4cnnn4)c3)cc2[nH]1 [B, compound B] | 35 | – |
| CSc1ccc(CNc2cccc(-n3cnnn3)c2)cc1 [D, N-[4-(methylsulfanyl)phenyl]methyl-3-(1 H-1,2,3,4-tetrazol-1-yl)aniline] | – | 100 |
| Cn1nnc(-c2ccccc2)c1CNc1cccc(-n2cnnn2)c1 [A, N-[(1-methyl-4-phenyl-1 H-1,2,3-triazol-5-yl)methyl]-3-(1 H-1,2,3,4-tetrazol-1-yl)-aniline] | 59 | – |
